{"source": "ChEMBL document CHEMBL3120096", "about": "(J Med Chem, 2014)", "key": {"[1]": {"assay": "Oral bioavailability in cynomolgus monkey at 1 to 20 mg/kg", "assay_type": "ADME, organism-based, Macaca fascicularis", "conditions": "in vivo; call rule not given here"}, "[2]": {"species_on_record": "Homo sapiens", "assay": "Selectivity ratio of Ki for JAK2 (unknown origin) to Ki for LRRK2 (unknown origin)"}, "[3]": {"assay": "Oral bioavailability in cynomolgus monkey at 1 mg/kg", "assay_type": "ADME, organism-based, Macaca fascicularis", "conditions": "in vivo"}, "[4]": {"assay": "Plasma protein binding in cynomolgus monkey at 5 uM after 4 hrs by equilibrium dialysis technique", "assay_type": "ADME, cell-free, Macaca fascicularis", "conditions": "read-out: PPB (converted)"}, "[5]": {"biological_target": "Ribosomal protein S6 kinase alpha-6 (Homo sapiens) (UniProt Q9UK32)", "sequence (Q9UK32 whole entry)": "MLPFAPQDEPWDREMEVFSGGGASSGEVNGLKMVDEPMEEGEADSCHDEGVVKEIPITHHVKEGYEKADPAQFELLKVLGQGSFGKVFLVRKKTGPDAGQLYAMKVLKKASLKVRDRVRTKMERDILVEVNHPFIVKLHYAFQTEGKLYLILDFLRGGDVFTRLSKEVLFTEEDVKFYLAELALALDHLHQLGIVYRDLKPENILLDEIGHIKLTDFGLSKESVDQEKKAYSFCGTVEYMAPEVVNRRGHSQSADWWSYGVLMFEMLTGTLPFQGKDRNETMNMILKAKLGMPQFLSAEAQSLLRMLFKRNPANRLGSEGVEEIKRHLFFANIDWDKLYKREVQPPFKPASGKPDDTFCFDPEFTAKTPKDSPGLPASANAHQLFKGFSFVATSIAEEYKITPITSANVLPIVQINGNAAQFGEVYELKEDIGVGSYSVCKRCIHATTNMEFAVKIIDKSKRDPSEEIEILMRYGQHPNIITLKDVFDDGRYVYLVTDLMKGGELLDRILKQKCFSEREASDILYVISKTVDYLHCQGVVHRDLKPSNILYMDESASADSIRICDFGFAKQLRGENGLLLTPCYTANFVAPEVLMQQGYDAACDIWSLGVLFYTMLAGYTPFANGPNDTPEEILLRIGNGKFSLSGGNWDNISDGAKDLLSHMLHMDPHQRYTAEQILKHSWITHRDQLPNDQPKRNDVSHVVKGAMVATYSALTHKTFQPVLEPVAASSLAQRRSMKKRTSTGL", "assay": "Inhibition of RSK4 (unknown origin) at 0.1 uM relative to control"}, "[6]": {"biological_target": "T1, Cytochrome P450 1A2 (Homo sapiens, UniProt P05177)", "T1 sequence (P05177 whole entry)": "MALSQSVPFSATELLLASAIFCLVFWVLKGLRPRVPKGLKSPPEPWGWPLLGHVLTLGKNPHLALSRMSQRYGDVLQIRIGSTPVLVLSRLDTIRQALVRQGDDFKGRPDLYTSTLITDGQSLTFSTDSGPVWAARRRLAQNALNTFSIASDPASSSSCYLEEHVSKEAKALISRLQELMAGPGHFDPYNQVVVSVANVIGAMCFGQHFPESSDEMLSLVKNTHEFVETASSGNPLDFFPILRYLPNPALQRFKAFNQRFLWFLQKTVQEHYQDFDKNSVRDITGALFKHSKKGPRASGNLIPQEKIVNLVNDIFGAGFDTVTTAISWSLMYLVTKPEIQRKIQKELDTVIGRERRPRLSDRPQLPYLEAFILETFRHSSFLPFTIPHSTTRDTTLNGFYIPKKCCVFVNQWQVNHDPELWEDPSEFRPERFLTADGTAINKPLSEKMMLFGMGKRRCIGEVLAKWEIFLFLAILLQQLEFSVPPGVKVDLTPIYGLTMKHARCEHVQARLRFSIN", "assay": "Induction of CYP1A2 in human hepatocytes", "assay_type": "ADME, cell-based, Hepatocyte"}, "[7]": {"test_system": "Liver microsome", "assay": "Drug metabolism in human liver microsomes assessed as glucuronidated parent compound level after 3 hrs", "assay_type": "ADME"}, "[8]": {"biological_target": "Aurora kinase B (Homo sapiens) (UniProt Q96GD4)", "sequence (Q96GD4 whole entry)": "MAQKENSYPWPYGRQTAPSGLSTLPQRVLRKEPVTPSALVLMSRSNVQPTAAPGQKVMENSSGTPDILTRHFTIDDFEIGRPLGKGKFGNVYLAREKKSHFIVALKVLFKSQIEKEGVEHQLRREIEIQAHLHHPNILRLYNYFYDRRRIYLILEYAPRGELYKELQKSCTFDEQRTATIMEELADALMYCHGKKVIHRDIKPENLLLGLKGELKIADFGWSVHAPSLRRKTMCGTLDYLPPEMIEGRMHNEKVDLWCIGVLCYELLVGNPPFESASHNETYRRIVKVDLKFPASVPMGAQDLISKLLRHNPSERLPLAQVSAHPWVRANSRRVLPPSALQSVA", "assay": "Inhibition of aurora-B (unknown origin) at 0.1 uM relative to control"}, "[9]": {"biological_target": "T2, Leucine-rich repeat serine/threonine-protein kinase 2 (Homo sapiens, UniProt Q5S007)", "T2 sequence (Q5S007 whole entry)": "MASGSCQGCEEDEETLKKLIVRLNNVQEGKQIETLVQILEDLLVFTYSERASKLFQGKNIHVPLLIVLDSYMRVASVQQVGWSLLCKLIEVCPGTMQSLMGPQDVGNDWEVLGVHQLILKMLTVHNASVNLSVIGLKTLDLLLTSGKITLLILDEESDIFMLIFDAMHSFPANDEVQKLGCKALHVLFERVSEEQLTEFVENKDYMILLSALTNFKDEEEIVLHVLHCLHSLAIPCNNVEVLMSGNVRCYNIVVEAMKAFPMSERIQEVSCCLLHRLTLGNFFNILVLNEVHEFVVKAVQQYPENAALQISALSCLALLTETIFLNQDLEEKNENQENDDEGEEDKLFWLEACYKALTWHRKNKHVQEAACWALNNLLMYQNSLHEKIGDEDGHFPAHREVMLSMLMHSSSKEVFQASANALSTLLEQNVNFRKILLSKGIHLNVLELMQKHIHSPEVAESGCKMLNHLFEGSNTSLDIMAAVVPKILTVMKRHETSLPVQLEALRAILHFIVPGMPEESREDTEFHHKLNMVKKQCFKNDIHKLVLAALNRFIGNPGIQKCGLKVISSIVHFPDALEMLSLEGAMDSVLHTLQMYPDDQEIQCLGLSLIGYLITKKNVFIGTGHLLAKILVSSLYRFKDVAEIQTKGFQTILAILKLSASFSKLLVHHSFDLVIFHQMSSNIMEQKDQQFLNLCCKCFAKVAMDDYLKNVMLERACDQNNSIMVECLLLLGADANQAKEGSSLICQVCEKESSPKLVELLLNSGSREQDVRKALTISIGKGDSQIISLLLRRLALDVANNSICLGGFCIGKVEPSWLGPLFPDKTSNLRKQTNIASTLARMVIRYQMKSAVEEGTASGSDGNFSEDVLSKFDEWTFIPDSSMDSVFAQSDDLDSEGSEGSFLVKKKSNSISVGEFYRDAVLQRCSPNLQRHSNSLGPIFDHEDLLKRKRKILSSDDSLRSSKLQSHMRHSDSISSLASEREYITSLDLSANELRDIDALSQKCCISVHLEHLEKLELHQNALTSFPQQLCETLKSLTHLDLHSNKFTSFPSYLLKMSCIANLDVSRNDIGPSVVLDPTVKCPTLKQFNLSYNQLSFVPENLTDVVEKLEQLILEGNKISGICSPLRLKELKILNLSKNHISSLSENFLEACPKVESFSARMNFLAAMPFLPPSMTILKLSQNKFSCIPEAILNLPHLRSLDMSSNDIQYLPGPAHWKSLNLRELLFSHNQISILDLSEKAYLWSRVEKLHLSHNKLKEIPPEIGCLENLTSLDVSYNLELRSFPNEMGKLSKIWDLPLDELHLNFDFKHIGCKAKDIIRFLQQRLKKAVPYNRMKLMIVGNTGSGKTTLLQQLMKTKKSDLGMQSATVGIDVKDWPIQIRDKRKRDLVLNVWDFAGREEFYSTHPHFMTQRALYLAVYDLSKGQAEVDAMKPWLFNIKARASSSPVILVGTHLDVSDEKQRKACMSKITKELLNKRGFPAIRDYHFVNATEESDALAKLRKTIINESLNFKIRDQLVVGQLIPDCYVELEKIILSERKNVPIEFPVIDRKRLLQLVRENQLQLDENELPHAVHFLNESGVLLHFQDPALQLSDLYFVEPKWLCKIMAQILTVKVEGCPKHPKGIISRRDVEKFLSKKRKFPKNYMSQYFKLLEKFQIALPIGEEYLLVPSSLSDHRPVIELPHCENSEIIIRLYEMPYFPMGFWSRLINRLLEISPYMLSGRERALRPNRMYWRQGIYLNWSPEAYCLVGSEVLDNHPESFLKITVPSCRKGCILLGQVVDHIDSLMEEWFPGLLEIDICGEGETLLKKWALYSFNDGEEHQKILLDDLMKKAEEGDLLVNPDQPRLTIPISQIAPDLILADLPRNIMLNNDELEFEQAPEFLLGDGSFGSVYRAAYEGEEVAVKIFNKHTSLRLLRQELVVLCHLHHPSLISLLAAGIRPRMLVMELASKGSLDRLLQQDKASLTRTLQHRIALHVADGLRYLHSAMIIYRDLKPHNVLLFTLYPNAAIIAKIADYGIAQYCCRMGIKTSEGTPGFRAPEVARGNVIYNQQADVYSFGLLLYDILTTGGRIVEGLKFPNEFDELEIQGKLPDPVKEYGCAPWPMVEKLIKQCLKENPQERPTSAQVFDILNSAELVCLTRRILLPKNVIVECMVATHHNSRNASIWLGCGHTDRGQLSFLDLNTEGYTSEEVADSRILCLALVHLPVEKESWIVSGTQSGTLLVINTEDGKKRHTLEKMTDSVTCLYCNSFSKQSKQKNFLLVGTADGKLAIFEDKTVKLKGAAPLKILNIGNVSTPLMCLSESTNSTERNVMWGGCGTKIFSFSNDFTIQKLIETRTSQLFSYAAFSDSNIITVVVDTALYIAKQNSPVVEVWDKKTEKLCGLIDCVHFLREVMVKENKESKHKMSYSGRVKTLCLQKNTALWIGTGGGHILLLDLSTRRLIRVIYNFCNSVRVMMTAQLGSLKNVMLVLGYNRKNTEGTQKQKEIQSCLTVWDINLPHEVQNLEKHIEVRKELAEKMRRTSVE", "assay": "Inhibition of LRRK2 (unknown origin) phosphorylation by cell-based assay"}, "[10]": {"biological_target": "T1, Cytochrome P450 1A2", "assay": "Reversible inhibition of CYP1A2 in human liver microsomes using phenacetin as substrate by mass spectrophotometric analysis", "assay_type": "ADME"}, "[11]": {"biological_target": "Ribosomal protein S6 kinase alpha-2 (Homo sapiens) (UniProt Q15349)", "assay": "Inhibition of RSK3 (unknown origin) at 0.1 uM relative to control"}, "[12]": {"biological_target": "T3, Cytochrome P450 2B6 (Homo sapiens, UniProt P20813)", "T3 sequence (P20813 whole entry)": "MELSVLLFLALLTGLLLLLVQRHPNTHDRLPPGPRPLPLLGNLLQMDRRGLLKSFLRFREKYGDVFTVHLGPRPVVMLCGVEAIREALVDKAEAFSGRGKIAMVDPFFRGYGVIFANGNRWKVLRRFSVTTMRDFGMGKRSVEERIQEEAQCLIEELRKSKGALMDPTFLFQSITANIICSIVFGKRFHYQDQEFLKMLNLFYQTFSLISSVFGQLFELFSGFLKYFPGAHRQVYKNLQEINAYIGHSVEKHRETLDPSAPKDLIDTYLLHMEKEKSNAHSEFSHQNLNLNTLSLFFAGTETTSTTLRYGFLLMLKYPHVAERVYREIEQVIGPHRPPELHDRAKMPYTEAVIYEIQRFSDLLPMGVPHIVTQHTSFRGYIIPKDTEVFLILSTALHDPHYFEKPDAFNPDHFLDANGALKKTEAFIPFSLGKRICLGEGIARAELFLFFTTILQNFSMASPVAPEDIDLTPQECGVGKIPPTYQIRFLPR", "assay": "Induction of CYP2B6 in human hepatocytes", "assay_type": "ADME, cell-based, Hepatocyte"}, "[13]": {"assay": "Clearance in cynomolgus monkey at 1 mg/kg, po and 0.5 mg/kg, iv", "assay_type": "ADME, organism-based, Macaca fascicularis", "conditions": "in vivo"}, "[14]": {"test_system": "Mus musculus", "assay": "In vivo inhibition of human LRRK2 G2019S Parkinson's disease mutant expressed in BAC mouse assessed as inhibition of autophosphorylation at Ser1292 in brain at 10 to 50 mg/kg, ip after 1 to 6 hrs", "assay_type": "functional, organism-based", "set-up": "dose 10-50 mg/kg, route intraperitoneal"}, "[15]": {"test_system": "Rattus norvegicus", "assay": "Unbound clearance in Sprague-Dawley rat at 1 mg/kg, po and 0.5 mg/kg, iv", "assay_type": "ADME, organism-based", "conditions": "in vivo"}, "[16]": {"assay": "Thermodynamic solubility of the crystalline form of compound at pH 7.4", "assay_type": "physicochemical", "conditions": "read-out: Therm_solubility"}, "[17]": {"assay": "Clearance in human hepatocytes at 1 uM by LC-MS/MS analysis", "assay_type": "ADME, cell-based, Hepatocyte"}, "[18]": {"assay": "Half life in cynomolgus monkey at 0.5 mg/kg, iv", "assay_type": "ADME, organism-based, Macaca fascicularis", "set-up": "dose 0.5 mg/kg, route intravenous", "conditions": "in vivo"}, "[19]": {"assay": "Clearance in rat hepatocytes at 1 uM by LC-MS/MS analysis", "assay_type": "ADME, cell-based, Hepatocyte"}, "[20]": {"biological_target": "Ribosomal protein S6 kinase alpha-3 (Homo sapiens) (UniProt P51812)", "sequence (P51812 whole entry)": "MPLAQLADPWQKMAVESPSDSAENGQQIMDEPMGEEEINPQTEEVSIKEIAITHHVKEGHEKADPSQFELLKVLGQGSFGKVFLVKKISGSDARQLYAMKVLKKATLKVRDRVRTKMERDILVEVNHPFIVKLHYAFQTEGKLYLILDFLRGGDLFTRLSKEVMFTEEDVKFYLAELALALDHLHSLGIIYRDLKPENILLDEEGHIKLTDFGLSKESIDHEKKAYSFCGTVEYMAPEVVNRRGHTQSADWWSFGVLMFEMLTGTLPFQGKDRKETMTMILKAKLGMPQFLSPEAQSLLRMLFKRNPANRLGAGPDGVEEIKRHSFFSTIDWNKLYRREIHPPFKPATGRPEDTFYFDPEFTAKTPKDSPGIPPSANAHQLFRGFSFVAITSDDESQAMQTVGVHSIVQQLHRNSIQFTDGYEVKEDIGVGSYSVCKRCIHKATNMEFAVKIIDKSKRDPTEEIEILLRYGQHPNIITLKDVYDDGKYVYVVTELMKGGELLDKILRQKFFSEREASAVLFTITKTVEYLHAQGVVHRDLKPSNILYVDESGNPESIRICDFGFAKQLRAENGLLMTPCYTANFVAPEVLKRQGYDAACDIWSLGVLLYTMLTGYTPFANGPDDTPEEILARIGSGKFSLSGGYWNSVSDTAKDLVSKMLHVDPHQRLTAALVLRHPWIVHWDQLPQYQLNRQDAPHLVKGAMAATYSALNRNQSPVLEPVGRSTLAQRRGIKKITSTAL", "assay": "Inhibition of RSK2 (unknown origin) at 0.1 uM relative to control"}, "[21]": {"test_system": "Hepatocyte", "assay": "Drug metabolism in human hepatocytes assessed as glucuronidated parent compound level after 3 hrs", "assay_type": "ADME, cell-based"}, "[22]": {"assay": "Ratio of unbound drug level in brain to plasma in Sprague-Dawley rat", "assay_type": "ADME, organism-based"}, "[23]": {"biological_target": "T4, Dual specificity protein kinase TTK (Homo sapiens, UniProt P33981)", "T4 sequence (P33981 whole entry)": "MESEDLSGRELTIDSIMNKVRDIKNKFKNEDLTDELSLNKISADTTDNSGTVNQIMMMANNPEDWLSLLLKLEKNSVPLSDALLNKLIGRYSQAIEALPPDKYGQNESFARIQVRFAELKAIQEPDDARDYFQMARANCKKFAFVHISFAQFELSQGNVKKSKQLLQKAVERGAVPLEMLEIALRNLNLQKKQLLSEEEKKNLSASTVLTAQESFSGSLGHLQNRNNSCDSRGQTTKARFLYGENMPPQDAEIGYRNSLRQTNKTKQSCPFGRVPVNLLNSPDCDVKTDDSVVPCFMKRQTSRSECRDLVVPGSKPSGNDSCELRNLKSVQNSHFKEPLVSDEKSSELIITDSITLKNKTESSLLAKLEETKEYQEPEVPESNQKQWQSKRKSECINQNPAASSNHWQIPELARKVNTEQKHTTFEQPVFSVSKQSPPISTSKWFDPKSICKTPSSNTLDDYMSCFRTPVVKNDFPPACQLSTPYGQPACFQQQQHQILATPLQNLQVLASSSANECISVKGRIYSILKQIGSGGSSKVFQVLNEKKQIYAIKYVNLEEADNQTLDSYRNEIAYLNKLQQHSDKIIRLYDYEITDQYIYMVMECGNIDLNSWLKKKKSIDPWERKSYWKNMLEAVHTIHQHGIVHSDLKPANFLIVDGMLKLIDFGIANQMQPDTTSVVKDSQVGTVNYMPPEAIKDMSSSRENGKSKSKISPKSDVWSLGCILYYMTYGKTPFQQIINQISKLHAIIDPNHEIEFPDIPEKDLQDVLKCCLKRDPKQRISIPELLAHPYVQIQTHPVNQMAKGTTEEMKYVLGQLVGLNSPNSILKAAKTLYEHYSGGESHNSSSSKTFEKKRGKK", "assay": "Inhibition of TTK (unknown origin)"}, "[24]": {"assay": "Clearance in Sprague-Dawley rat at 1 mg/kg, po and 0.5 mg/kg, iv", "assay_type": "ADME, organism-based", "conditions": "in vivo"}, "[25]": {"test_system": "Cynomolgus monkey", "assay": "Unbound clearance in cynomolgus monkey at 1 mg/kg, po and 0.5 mg/kg, iv", "assay_type": "ADME, organism-based, Macaca fascicularis", "conditions": "in vivo"}, "[26]": {"biological_target": "Cytochrome P450 3A4 (Homo sapiens, UniProt P08684)", "sequence (P08684 whole entry)": "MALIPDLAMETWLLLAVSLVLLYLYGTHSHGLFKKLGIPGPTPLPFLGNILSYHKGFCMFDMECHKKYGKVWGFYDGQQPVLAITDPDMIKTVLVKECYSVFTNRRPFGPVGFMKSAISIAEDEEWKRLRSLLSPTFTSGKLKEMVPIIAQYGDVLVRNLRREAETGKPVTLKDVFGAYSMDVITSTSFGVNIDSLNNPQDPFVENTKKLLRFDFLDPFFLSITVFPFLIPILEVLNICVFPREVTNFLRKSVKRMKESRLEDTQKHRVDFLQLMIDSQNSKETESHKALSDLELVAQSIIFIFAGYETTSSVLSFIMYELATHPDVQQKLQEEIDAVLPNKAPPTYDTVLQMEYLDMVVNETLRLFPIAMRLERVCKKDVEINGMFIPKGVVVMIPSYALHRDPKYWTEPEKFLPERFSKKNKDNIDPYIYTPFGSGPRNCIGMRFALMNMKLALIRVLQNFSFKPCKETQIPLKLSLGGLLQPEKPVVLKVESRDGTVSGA", "assay": "Induction of CYP3A4 in human hepatocytes", "assay_type": "ADME, cell-based, Hepatocyte"}, "[27]": {"biological_target": "T2, Leucine-rich repeat serine/threonine-protein kinase 2", "assay": "Inhibition of LRRK2 (unknown origin)"}, "[28]": {"assay": "Oral bioavailability in Sprague-Dawley rat at 50 mg/kg", "assay_type": "ADME, organism-based", "conditions": "in vivo"}}, "data": [{"smiles": "CNc1nc(Nc2cnn(CC(C)(C)O)c2Cl)ncc1C(F)(F)F", "values": [{"measurement": "bioavailability", "setting": "[1]", "result": 5, "unit": "%"}, {"measurement": "Ratio Ki", "setting": "[2]", "result": "> 150"}]}, {"smiles": "CNc1nc(Nc2cn(C(C)(C)C#N)nc2C)ncc1C(F)(F)F", "note": "[DNL-201]", "values": [{"measurement": "bioavailability", "setting": "[3]", "result": 35, "unit": "%"}, {"measurement": "fraction unbound at 4 h, 5 µM", "setting": "[4]", "result": 0.197}, {"measurement": "inhibition", "setting": "[5]", "result": 62, "unit": "%"}, {"measurement": "Activity", "setting": "[6]", "result": "Active"}, {"measurement": "Drug metabolism", "setting": "[7]", "result": "Not Active"}, {"measurement": "inhibition", "setting": "[8]", "result": 51, "unit": "%"}, {"measurement": "IC50", "setting": "[9]", "result": 3, "unit": "nM"}, {"measurement": "IC50", "setting": "[10]", "result": 700, "unit": "nM"}, {"measurement": "inhibition", "setting": "[11]", "result": 68, "unit": "%"}, {"measurement": "Activity", "setting": "[12]", "result": "Active"}, {"measurement": "clearance", "setting": "[13]", "result": 19.7, "unit": "mL/min/kg"}, {"measurement": "IC50", "setting": "[14]", "result": 3, "unit": "nM"}, {"measurement": "inhibition", "setting": "[14]", "result": "Dose-dependent effect"}, {"measurement": "CL free", "setting": "[15]", "result": 210, "unit": "mL/min/kg"}, {"measurement": "solubility thermodynamic", "setting": "[16]", "result": 100, "unit": "µg/mL"}, {"measurement": "CLhep predicted at 1 µM", "setting": "[17]", "result": 3, "unit": "mL/min/kg"}, {"measurement": "half-life", "setting": "[18]", "result": 2.2, "unit": "h"}, {"measurement": "CLhep predicted at 1 µM", "setting": "[19]", "result": 25, "unit": "mL/min/kg"}, {"measurement": "inhibition", "setting": "[20]", "result": 52, "unit": "%"}, {"measurement": "Drug metabolism", "setting": "[21]", "result": "Not Active"}, {"measurement": "Kp uu", "setting": "[22]", "result": 0.6}, {"measurement": "Ki", "setting": "[23]", "result": 150, "unit": "nM"}, {"measurement": "clearance", "setting": "[24]", "result": 44, "unit": "mL/min/kg"}, {"measurement": "CL free", "setting": "[25]", "result": 100, "unit": "mL/min/kg"}, {"measurement": "Activity", "setting": "[26]", "result": "Active"}, {"measurement": "Ki", "setting": "[27]", "result": 0.7, "unit": "nM"}, {"measurement": "bioavailability", "setting": "[28]", "result": 88, "unit": "%"}]}]}
